Laboratory results published in DBAASP.
In brackets after ≈: the same amount, converted by molar mass.

How the values were obtained:
Assay in all cases: ≥ marks a high value that may be exact or a test limit, other limits are often not marked, values filed in µg/mL are converted to µM
Staphylococcus aureus = tested on: Staphylococcus aureus
Bacillus subtilis = tested on: Bacillus subtilis
Candida albicans = tested on: Candida albicans
Escherichia coli = tested on: Escherichia coli
Bacillus cereus = tested on: Bacillus cereus
[1] = tested on: Staphylococcus aureus ATCC 25923
[2] = tested on: Escherichia coli ATCC 25922
[3] = tested on: Acinetobacter baumannii ATCC 19606
[4] = tested on: Pseudomonas aeruginosa ATCC 27853
[5] = tested on: Bacillus subtilis ATCC 23857

Row | Compound | MIC (Staphylococcus aureus) [µM] | MIC (Escherichia coli) [µM] | MIC (Bacillus cereus) [µM] | also measured
1 | CC[C@H](C)[C@H](NC(=O)[C@H](CCCN=C(N)N)NC(=O)[C@@H](NC(=O)[C@@H]1CCCN1C(=O)[C@H](CCCN=C(N)N)NC(=O)[C@@H](NC(=O)[C@@H]1CCCN1C(=O)[C@H](CC(C)C)NC(=O)[C@H](CC(C)C)NC(=O)CNC(=O)[C@H](Cc1cnc[nH]1)NC(=O)[C@@H]1CCCN1C(=O)CNC(=O)[C@H](Cc1ccccc1)NC(=O)[C@H](CC(=O)O)NC(=O)[C@H](Cc1c[nH]c2ccccc12)NC(=O)[C@H](C)NC(=O)[C@@H](NC(=O)[C@H](C)N)[C@@H](C)O)[C@@H](C)CC)[C@@H](C)CC)C(=O)N[C@@H](CCCN=C(N)N)C(=O)N1CCC[C@H]1C(=O)N[C@@H](CC(C)C)C(=O)N[C@@H](CS)C(=O)NCC(=O)N[C@@H](CCCCN)C(=O)N[C@@H](CC(=O)O)C(=O)N[C@@H](CCCCN)C(=O)N[C@@H](CO)C(=O)O [ATAWDFGPHGLLPIRPIRIRPLCGKDKS] | 1.5 (≈ 4.68 µg/mL) | 3.01 (≈ 9.37 µg/mL) | – | MIC (Bacillus subtilis): 24.1 µM (≈ 75 µg/mL); MIC (Candida albicans): 6.02 µM (≈ 18.8 µg/mL)
2 | CC(C)C[C@H](NC(=O)[C@@H](N)Cc1ccccc1)C(=O)NCC(=O)NCC(=O)N[C@H](C(=O)N[C@@H](Cc1ccccc1)C(=O)N[C@@H](CCCCN)C(=O)NCC(=O)N[C@@H](C)C(=O)N[C@@H](CO)C(=O)N[C@@H](CCCCN)C(=O)N[C@H](C(=O)N[C@@H](Cc1ccccc1)C(=O)N1CCC[C@H]1C(=O)N[C@@H](C)C(=O)N[C@H](C(=O)N[C@@H](Cc1ccccc1)C(=O)NCC(=O)N[C@@H](CCCCN)C(=O)N[C@H](C(=O)O)C(C)C)C(C)C)C(C)C)C(C)C [FLGGVFKGASKVFPAVFGKV] | > 125 | > 125 | ≥ 125 | –
3 | CC(C)C[C@H](NC(=O)[C@@H](N)Cc1ccccc1)C(=O)NCC(=O)N[C@@H](CCCCN)C(=O)N[C@H](C(=O)N[C@@H](Cc1ccccc1)C(=O)N[C@@H](CCCCN)C(=O)NCC(=O)N[C@@H](C)C(=O)N[C@H](C(=O)N[C@@H](CCCCN)C(=O)N[C@H](C(=O)N[C@@H](Cc1ccccc1)C(=O)N1CCC[C@H]1C(=O)N[C@@H](C)C(=O)N[C@H](C(=O)N[C@@H](Cc1ccccc1)C(=O)NCC(=O)N[C@@H](CCCCN)C(=O)N[C@H](C(=O)O)C(C)C)C(C)C)C(C)C)C(C)C)C(C)C [FLGKVFKGAVKVFPAVFGKV] | > 59.9 | 59.9 (≈ 128 µg/mL) | ≥ 59.9 | –
4 | CC(C)C[C@H](NC(=O)[C@H](CCCCN)NC(=O)[C@H](Cc1ccccc1)NC(=O)[C@@H](NC(=O)[C@H](CCCCN)NC(=O)CNC(=O)[C@H](CC(C)C)NC(=O)[C@@H](N)Cc1ccccc1)C(C)C)C(=O)N[C@@H](C)C(=O)N[C@@H](CO)C(=O)N[C@@H](CCCCN)C(=O)N[C@H](C(=O)N[C@@H](Cc1ccccc1)C(=O)N1CCC[C@H]1C(=O)N[C@@H](C)C(=O)N[C@H](C(=O)N[C@@H](Cc1ccccc1)C(=O)N[C@@H](CCCCN)C(=O)N[C@@H](CCCCN)C(=O)N[C@H](C(=O)O)C(C)C)C(C)C)C(C)C [FLGKVFKLASKVFPAVFKKV] | 56.8 (≈ 128 µg/mL) | 7.1 (≈ 16 µg/mL) | ≥ 56.8 | –
5 | CC(C)C[C@H](NC(=O)[C@@H](N)Cc1ccccc1)C(=O)NCC(=O)N[C@H](C(=O)N[C@H](C(=O)N[C@@H](Cc1ccccc1)C(=O)N[C@@H](CCCCN)C(=O)N[C@@H](CCCCN)C(=O)N[C@@H](C)C(=O)N[C@@H](CO)C(=O)N[C@@H](CCCCN)C(=O)N[C@H](C(=O)N[C@@H](Cc1ccccc1)C(=O)N1CCC[C@H]1C(=O)N[C@@H](C)C(=O)N[C@H](C(=O)N[C@@H](Cc1ccccc1)C(=O)NCC(=O)N[C@@H](CCCCN)C(=O)N[C@H](C(=O)O)C(C)C)C(C)C)C(C)C)C(C)C)C(C)C [FLGVVFKKASKVFPAVFGKV] | > 118 | 118 (≈ 256 µg/mL) | ≥ 118 | –
6 | CC(C)C[C@H](NC(=O)[C@H](CCCCN)NC(=O)[C@H](Cc1ccccc1)NC(=O)[C@@H](NC(=O)[C@@H](NC(=O)CNC(=O)[C@H](CC(C)C)NC(=O)[C@@H](N)Cc1ccccc1)C(C)C)C(C)C)C(=O)N[C@@H](C)C(=O)N[C@@H](CO)C(=O)N[C@@H](CCCCN)C(=O)N[C@H](C(=O)N[C@H](C(=O)N1CCC[C@H]1C(=O)N[C@@H](C)C(=O)N[C@H](C(=O)N[C@@H](Cc1ccccc1)C(=O)NCC(=O)N[C@@H](CCCCN)C(=O)N[C@H](C(=O)O)C(C)C)C(C)C)C(C)C)C(C)C [FLGVVFKLASKVVPAVFGKV] | 7.6 (≈ 16 µg/mL) | 122 (≈ 256 µg/mL) | 30.4 (≈ 64 µg/mL) | –
7 | CC(C)C[C@H](NC(=O)[C@H](CC(C)C)NC(=O)[C@H](CCCCN)NC(=O)[C@H](CCCCN)NC(=O)[C@H](CC(C)C)NC(=O)[C@H](CC(=O)O)NC(=O)[C@H](CCCCN)NC(=O)[C@H](CC(C)C)NC(=O)[C@@H](N)Cc1ccccc1)C(N)=O [FLKDLKKLL] | – | – | – | MIC [1]: > 115 µM; MIC [2]: > 115 µM; MIC [3]: > 115 µM; MIC [4]: 14.3 µM (≈ 16 µg/mL)
8 | CC[C@H](C)[C@H](NC(=O)CN)C(=O)N[C@@H](CCCCN)C(=O)N[C@@H](CCCN=C(N)N)C(=O)NCC(=O)N[C@H](C(=O)N[C@H](C(=O)N[C@@H](CCCCN)C(=O)N[C@H](C(=O)N[C@H](C(=O)N[C@@H](CCCCN)C(=O)N[C@@H](CCCN=C(N)N)C(N)=O)[C@@H](C)CC)[C@@H](C)CC)[C@@H](C)CC)[C@@H](C)CC [GIKRGIIKIIKR] | – | – | – | MIC [5]: ≥ 32 µM; MIC [2]: > 128 µM
9 | CC[C@H](C)[C@H](NC(=O)CNC(=O)[C@@H](N)CCSC)C(=O)N[C@H](C(=O)N[C@@H](C)C(=O)NCC(=O)N[C@H](C(=O)N[C@H](C(=O)N[C@@H](CCCCN)C(=O)N[C@@H](Cc1ccccc1)C(=O)N[C@H](C(=O)N[C@@H](CCCCN)C(=O)NCC(=O)N[C@@H](CC(C)C)C(=O)N[C@H](C(=O)N[C@@H](CCC(=O)O)C(=O)N[C@@H](CCCCN)C(=O)N[C@@H](Cc1ccccc1)C(=O)N[C@H](C(=O)NCC(=O)N[C@@H](CCCCN)C(=O)O)[C@@H](C)O)[C@@H](C)CC)[C@@H](C)CC)[C@@H](C)CC)[C@@H](C)CC)[C@@H](C)CC [MGIIAGIIKFIKGLIEKFTGK] | – | – | – | MIC [5]: ≥ 128 µM; MIC [2]: > 128 µM

Further lines, with some results ahead:

Row | MIC (Staphylococcus aureus) [µM] | MIC (Escherichia coli) [µM] | MIC (Bacillus cereus) [µM] | Compound | also measured
10 | 2.54 (≈ 6.3 µg/mL) | 5.09 (≈ 12.6 µg/mL) | – | CC(C)C[C@H](NC(=O)CN)C(=O)N[C@@H](Cc1ccccc1)C(=O)NCC(=O)N[C@@H](CCCCN)C(=O)N[C@@H](CO)C(=O)N[C@@H](CO)C(=O)N[C@H](C(=O)N[C@@H](Cc1c[nH]c2ccccc12)C(=O)NCC(=O)N[C@@H](CCCN=C(N)N)C(=O)N[C@@H](CCCCN)C(=O)N[C@@H](Cc1ccc(O)cc1)C(=O)N[C@@H](Cc1ccc(O)cc1)C(=O)N[C@H](C(=O)N[C@@H](CC(=O)O)C(=O)N[C@@H](CC(C)C)C(=O)N[C@@H](C)C(=O)NCC(=O)N[C@@H](CS)C(=O)N[C@@H](C)C(=O)N[C@@H](CCCCN)C(=O)N[C@@H](C)C(=O)O)C(C)C)C(C)C [GLFGKSSVWGRKYYVDLAGCAKA] | MIC (Bacillus subtilis): 2.54 µM (≈ 6.3 µg/mL); MIC (Candida albicans): 1.27 µM (≈ 3.15 µg/mL)
11 | – | > 125 | ≥ 125 | CC[C@H](C)[C@H](N)C(=O)N[C@@H](C)C(=O)N[C@@H](CO)C(=O)N[C@@H](C)C(=O)N[C@H](C(=O)N1CCC[C@H]1C(=O)N[C@H](C(=O)N[C@@H](CS)C(=O)N[C@H](C(=O)N[C@@H](CCCCN)C(=O)NCC(=O)N[C@@H](CCCCN)C(=O)N[C@H](C(=O)N[C@@H](CO)C(=O)N[C@@H](CCCCN)C(=O)N[C@@H](CO)C(=O)N[C@@H](Cc1ccc(O)cc1)C(=O)N[C@H](C(=O)N[C@@H](CO)C(=O)N[C@H](C(=O)O)C(C)C)[C@@H](C)CC)[C@@H](C)CC)C(C)C)C(C)C)C(C)C [IASAVPVCVKGKISKSYISV] | –
12 | – | > 59.8 | ≥ 59.8 | CC(C)C[C@H](NC(=O)[C@H](CO)NC(=O)[C@@H]1CCCN1)C(=O)N[C@@H](CC(C)C)C(=O)N[C@@H](Cc1ccc(O)cc1)C(=O)N[C@@H](CCCCN)C(=O)N[C@@H](C)C(=O)N[C@@H](CCCCN)C(=O)N[C@@H](C)C(=O)N[C@H](C(=O)N[C@@H](Cc1ccccc1)C(=O)N[C@@H](CS)C(=O)N[C@@H](CCCCN)C(=O)N1CCC[C@H]1C(=O)N[C@@H](CO)C(=O)N[C@@H](C)C(=O)N[C@H](C(=O)N[C@@H](C)C(=O)N[C@H](C(=O)N[C@@H](Cc1ccccc1)C(=O)O)C(C)C)C(C)C)C(C)C [PSLLYKAKAVFCKPSAVAVF] | –
13 | – | > 103 | ≥ 103 | CC(C)C[C@H](NC(=O)[C@H](CCC(=O)O)NC(=O)[C@H](Cc1ccccc1)NC(=O)[C@H](CCC(=O)O)NC(=O)[C@H](C)NC(=O)[C@H](CCC(=O)O)NC(=O)[C@H](Cc1ccccc1)NC(=O)[C@H](CC(=O)O)NC(=O)[C@@H](NC(=O)[C@H](CC(=O)O)NC(=O)[C@H](CO)NC(=O)[C@H](CCCCN)NC(=O)[C@H](CCCN=C(N)N)NC(=O)[C@H](CCCCN)NC(=O)[C@@H](N)CCCN=C(N)N)C(C)C)C(=O)N[C@@H](Cc1ccccc1)C(=O)N[C@@H](CCC(=O)O)C(=O)N[C@@H](CC(=O)O)C(=O)N[C@@H](CC(=O)O)C(=O)N[C@@H](CC(=O)O)C(=O)O [RKRKSDVDFEAEFELFEDDD] | –
14 | – | > 125 | ≥ 125 | CC[C@H](C)[C@H](NC(=O)[C@H](C)NC(=O)[C@H](CS)NC(=O)[C@H](Cc1ccc(O)cc1)NC(=O)[C@@H](NC(=O)[C@H](CO)NC(=O)[C@@H]1CCCN1C(=O)[C@@H](NC(=O)[C@@H](NC(=O)[C@H](CCCCN)NC(=O)[C@H](CO)NC(=O)[C@H](C)NC(=O)[C@@H](NC(=O)[C@H](CCCCN)NC(=O)CNC(=O)[C@@H](NC(=O)[C@@H](NC(=O)[C@@H](N)CO)C(C)C)[C@@H](C)CC)[C@@H](C)CC)C(C)C)C(C)C)C(C)C)C(=O)N[C@@H](CO)C(=O)N[C@@H](CCCCN)C(=O)O [SVIGKIASKVVPSVYCAISK] | –
